From PubChem BioAssay AID1996
≈ marks a conversion by molar mass, not a printed value.

Details: buffer; pH 7.4; 200.0 µM

Structure (SMILES)	solubility kinetic [µg/mL]
S=C(NCc1ccccc1)Nc1cccc2ccccc12	3.8 (≈ 13 µM)
COc1ccccc1N1C(=O)c2cccnc2C1=O	34.9 (≈ 137 µM)
OCc1cccc[n+]1CCc1ccccc1.[Br-]	> 44.1
N#CC1=C(N)Oc2cc(N)ccc2C1c1ccccc1Cl (stereo unspecified)	32.9 (≈ 110 µM)
N/C(=N\OC(=O)c1cccc(F)c1)c1ccccn1	37.4 (≈ 144 µM)
CC(=O)c1ccc(S(=O)(=O)NCCC(=O)NC2CCN(Cc3ccccc3)CC2)cc1.O=C(O)C(=O)O	> 80
O=C(CN1CCCCCC1)Nc1ccccc1[N+](=O)[O-]	14 (≈ 50.5 µM)
Cc1ccc(NC(=O)CSCC(=O)O)cc1	> 35.9
O=c1oc2cccnc2n1CCS(=O)(=O)c1ccc(F)cc1	45 (≈ 140 µM)
Clc1ccc(-c2csc(-c3ccncc3)n2)cc1	0.3 (≈ 1.1 µM)
COc1ccc(NC(=O)CCN2C(=O)c3ccccc3C2=O)cc1	23.1 (≈ 71.2 µM)
Cl.O=C1CCC(c2ccccc2)(C2CCN(Cc3ccccc3)CC2)C(=O)N1 (stereo unspecified)	51.4
COCCN(C(=S)Nc1cccc(C)c1C)C(C)c1ccco1 (stereo unspecified)	40.1 (≈ 121 µM)
O=[N+]([O-])/C=C1/CCCCCN1	> 23.4
O=C(O)CSc1ncnc2sc3c(c12)CCCC3	> 42.1
COc1ccc(S(=O)(=O)NCc2csc(C)n2)cc1OC	> 49.3
CC(=O)NCCc1nc2ccccc2n1Cc1ccc(Cl)cc1	> 49.2
CCCCCOc1ccc(C(=O)CCC(=O)N2CCCC2)cc1	> 47.6
Cc1ccc(S(=O)(=O)N2CC(=NN=C(N)N)C2)cc1	> 42.2
c1ccc(CNc2cncnc2)cc1	26.4 (≈ 143 µM)
COC(=O)C(C)NC(=O)C12CC3CC(C1)CC(c1ccc(C)cc1)(C3)C2 (stereo unspecified)	30.6 (≈ 86.1 µM)
COC(=O)c1cc(S(=O)(=O)N2CCC(C(N)=O)CC2)oc1C	> 49.6
CSc1ccc(/C=N/S(=O)(=O)c2ccccc2)cc1	> 43.7
CCOC(=O)Cc1csc(SCC(=O)N2CCN(c3ccccc3)CC2)n1	> 60.8
O=C(Nc1ccc(Br)cc1)Nc1cnccn1	3 (≈ 10.2 µM)

Structure (SMILES)	solubility kinetic [µg/mL]
Cc1coc2cc3oc(=O)c(CCC(=O)NCc4ccccn4)c(C)c3cc12	3.4 (≈ 9.03 µM)
CCC(=Nc1cccc(C(F)(F)F)c1)c1c(O)n(C)c(=O)n(C)c1=O	6.4 (≈ 18 µM)
CC(C)C(NC(=O)c1ccco1)C(=O)NC1CCCCCC1 (stereo unspecified)	37.8 (≈ 123 µM)
O=C(CCCN1C(=O)/C(=C/c2ccccc2OC(F)F)SC1=S)Nc1cccnc1	4.5 (≈ 10 µM)
N#Cc1ncccc1CCc1cccc(Cl)c1	22.4 (≈ 92.3 µM)
CC(C)COc1cccc(C(=O)N(C)CC(=O)Nc2cccc3ccccc23)c1	33.6 (≈ 86 µM)
COc1ccc(NC(=O)COc2ccc(/C=N/O)cc2OC)cc1	> 49.6
COc1cccc(OC)c1C(=O)NC(=O)Nc1c(C)cccc1C	5.2 (≈ 15.8 µM)
O=C(NC1CC1)c1cc2cc3ccccc3nc2s1	0.9 (≈ 3.35 µM)
C=Cn1ccnc1P(=S)(c1ccc(Cl)cc1)c1nccn1C=C	46.9 (≈ 130 µM)
Cc1ccc(C(=O)OCC(=O)NC(C)c2ccccc2)cc1C (stereo unspecified)	1.1 (≈ 3.53 µM)
O=C(CCCC(=O)NC1CCCCC1)Nc1ccc([N+](=O)[O-])cc1	12 (≈ 36 µM)
COc1ccc(C)cc1N(CC(=O)N1CCCC1)S(C)(=O)=O	> 49
CC(=O)c1cccc(NC(=S)N2c3ccccc3CC2C)c1 (stereo unspecified)	1.4 (≈ 4.51 µM)
FC(F)(F)c1cccc(-n2cc(-c3ccccc3)[nH]c2=S)c1	< 0.3
S=P(N1CC1)(N1CC1)N1CC1	> 28.4
CC(=O)c1ccc(OC(=O)CN2C(=O)c3ccccc3C2=O)cc1	> 48.5
O=C(/C=C/c1ccco1)OCC(=O)c1cccc([N+](=O)[O-])c1	3.2 (≈ 10.6 µM)
CCOC(=O)c1ccc(NC(=O)Cc2cccs2)cc1	> 43.4
Cc1ccc(C)c(NC(=O)CSc2c(C)n[nH]c2C)c1	> 43.4
CCN1CNC(=S)N(c2cccc(C)c2)C1	> 35.3
CCOC(=O)C(=CNc1ccc(Cl)cn1)C(=O)OCC	1.2 (≈ 4.02 µM)
COc1ccc(Nc2nccc(-c3cccc(N)c3)n2)cc1	22.5 (≈ 77 µM)
COc1ccc(OC)c(NC(=O)CCCc2ccccc2)c1	24.5 (≈ 81.8 µM)
C=Cn1cc[n+](CC(=O)c2cccs2)c1.[Br-]	> 44.9

Structure (SMILES)	solubility kinetic [µg/mL]
CCCN1CCC(NC(=S)Nc2ccc([N+](=O)[O-])cc2)CC1	> 48.4
Cc1ccc(CNC(=S)N(C)C)cc1	> 31.2
O=C(CN1CCOCC1)Nc1ccc2c(c1)OC(F)(F)O2	41.2 (≈ 137 µM)
CCC(=O)N1CCN=C1SCc1cccc(C(F)(F)F)c1	40.8 (≈ 129 µM)
CCC1CN(C(=O)NCc2ccccc2)c2cc(C)ccc2O1 (stereo unspecified)	3.8 (≈ 12.2 µM)
CCNc1nc(NC(C)C)nc(N(C)C#N)n1	> 35.3
Cc1ccc(Nc2nnc(C)c3ccccc23)c(C)c1	> 39.5
COc1ccc(NC(=O)Cc2c(Cl)cccc2Cl)cn1	6.2 (≈ 19.9 µM)
CC#C[C@]1(O)CC[C@H]2[C@@H]3CCC4=CC(=O)CCC4=C3[C@@H](c3ccc(N(C)C)cc3)C[C@@]21C	7 (≈ 16.3 µM)
Cc1cc(C(=O)CSc2nc(N)cc(=O)[nH]2)ccc1F	32.5 (≈ 111 µM)
NC(=O)CSc1nc2ccccc2c(=O)n1Cc1ccccc1	2.5 (≈ 7.68 µM)
N#CCCN(C(=O)CN1CCN(S(=O)(=O)c2ccc(Cl)s2)CC1)c1ccc(F)cc1	> 70.6
Cc1cnc(C(=O)Oc2cccc(Cl)c2Cl)cn1	35.4 (≈ 125 µM)
Cc1ccc(C)c(NC2=C(Cl)C(=O)OC2OC(C)C)c1 (stereo unspecified)	10.8 (≈ 36.5 µM)
Cc1ccc(C(=O)NCC(C)NC(=O)c2ccc(C)c(C)c2)cc1C (stereo unspecified)	3.4 (≈ 10 µM)
CC(=O)c1ccccc1NC(=O)COC(=O)CCC1CCCC1	7.7 (≈ 24.3 µM)
O=C(Nc1ccccc1N1CCCC1)c1cccc(F)c1	> 42.6
Cc1ccc(C(=O)O/N=C/c2ccc(N(C)C)cc2)cc1	2.4 (≈ 8.5 µM)
CSc1cccc(NC(=O)CNC(=O)C2CCCCC2)c1	22.7 (≈ 74.1 µM)
COc1ccc2c(c1OC)C(=O)N(c1ccc(O)cc1)C2=O	41.4 (≈ 138 µM)
N#Cc1ccc(C(CC(=O)O)N2Cc3ccccc3C2=O)cc1 (stereo unspecified)	44 (≈ 144 µM)
COc1ccc(CN2CN(C3CCCC3)CSC2=S)cc1	0.8 (≈ 2.48 µM)
CN(C)S(=O)(=O)c1cccc(C(=O)NCC2CCCCC2)c1	2.8 (≈ 8.63 µM)
CSc1nc2c(cc1C#N)CCC2	5.1 (≈ 26.8 µM)
Cc1cc(OCC(=O)NC2CCN(C)CC2)ccc1[N+](=O)[O-]	> 46.1

Structure (SMILES)	solubility kinetic [µg/mL]
CCn1c(=O)c2ccccc2n2c(SCC(N)=O)nnc12	> 45.5
CCCSc1nc2ccccc2n1CC(=O)O	> 37.5
CCN(CC(=O)NC(=O)NC1CCCCC1)Cc1ccccc1	47 (≈ 148 µM)
COc1ccc(N2CCN(S(=O)(=O)c3cn(C)c(=O)n(C)c3=O)CC2)cc1	17.9 (≈ 45.4 µM)
N#Cc1cc(C#N)c(SCC(=O)NCC2CCCO2)nc1N (stereo unspecified)	> 47.6
O=[N+]([O-])c1ccc(N2CCN(c3ccccc3Cl)CC2)cn1	2 (≈ 6.27 µM)
O=C(O/N=C(/c1ccccc1)c1ccncc1)c1ccccc1[N+](=O)[O-]	8.3 (≈ 23.9 µM)
CCCCNC(=O)NC(C(N)=O)P(=O)(OCC)OCC (stereo unspecified)	> 46.4
O=C(COC(=O)/C=C/c1cccc(F)c1)NC1CC1	> 39.5
Cl.Clc1cccc(N2CCNCC2)c1	> 35
Cc1cccc(-c2noc(CCCC(=O)NC3CCCCC3)n2)c1	4.5 (≈ 13.7 µM)
CCOC(=O)Cn1ccc(-c2ccccc2)c(C#N)c1=O	> 42.3
O=C(Nc1cccnc1Cl)c1cccc(S(=O)(=O)N2CCOCC2)c1	> 57.3
COc1ccc(C(=O)N2CCCN(C)CC2)c(OC)c1	36.5 (≈ 131 µM)
Cc1nc([N+](=O)[O-])cn1C(C)C	> 25.4
Cc1ccc2ccccc2c1NC(=O)c1ccco1	> 37.7
O=C(NCCCCCCNC(=O)c1ccncc1)c1ccncc1	> 49
O=C1CC(NC2CCN(C(=O)c3cccc(F)c3)CC2)C(=O)N1 (stereo unspecified)	> 47.9
COc1cccc(OCC(=O)N(C)Cc2nc(-c3ccccc3)no2)c1	36.6 (≈ 104 µM)
COc1ccc(S(=O)(=O)N2CCOCC2)cc1NC(=O)CN(C)CC(=O)Nc1cccc(F)c1	> 74.2
Cc1ccccc1C(=O)O/N=C(\N)c1ccc([N+](=O)[O-])cc1	6 (≈ 20 µM)
C=CCn1c(O)c(C(CC)=Nc2ccc(C(=O)O)cc2)c(=O)[nH]c1=O	> 51.5
COC(=O)c1cc(S(=O)(=O)N2CCCC2)c(Cl)cc1Cl	41.8 (≈ 124 µM)
O=C(CNC(=O)c1ccc(=O)[nH]c1)Nc1ccc(F)c(F)c1	> 46.1
CC(=O)NCCCNS(=O)(=O)c1ccc(C)cc1	32.2 (≈ 119 µM)

Structure (SMILES)	solubility kinetic [µg/mL]
COC(=O)c1sccc1NC(=O)Nc1ccc(C)cc1	10.1 (≈ 34.8 µM)
COc1ccc(OCC(=O)NS(=O)(=O)c2ccccc2)cc1	> 48.2
CSc1nc2ccccc2c(=O)n1C1CCOC(C)(C)C1 (stereo unspecified)	28.4 (≈ 93.3 µM)
O=C(Cc1ccccc1)O/N=C1\CCCc2ccccc21	17.1 (≈ 61.2 µM)
Cl.O=C(NC(=S)N1CCN(c2ccccc2)CC1)c1ccco1	> 52.8
Cc1cccc(CSc2nc3ccccc3c(=O)n2C)c1	1.2 (≈ 4.05 µM)
S=C(NCCc1cccc(Cl)c1)NCc1ccccc1	14.9 (≈ 48.9 µM)
Nc1c(C(=O)C2CC2)sc2nc3c(cc12)CCC3	2.2 (≈ 8.52 µM)
COc1ccccc1Oc1ccnc2cc(Cl)ccc12	9.1 (≈ 31.8 µM)
COC(=O)C/C(N)=C(\C#N)C(=O)OC	> 29.7
Cc1nc(NC(=O)CCl)sc1C(=O)N(C)C	> 39.3
Cc1ccc2c(c1)-c1[nH]c(=S)ncc1CS2	3.8 (≈ 15.4 µM)
COc1ccc(NC(=O)CSc2nnc(N)s2)cc1S(=O)(=O)N1CCCCC1	> 66.5
CCOC(=O)N1CCN(C(=O)c2cc3cc(Cl)ccc3[nH]2)CC1	7 (≈ 20.8 µM)
CCNC(=O)COC(=O)c1cccc(Br)c1	40.8 (≈ 143 µM)
COc1ccc(CCC(=O)NCC2CCCCC2)cc1OC	> 45.8
Cc1ccc2c(c1)CCCN2C(=O)c1cc(C)on1	> 38.4
CCCCn1c(N)c(N(CC)C(=O)c2c(C)noc2C)c(=O)[nH]c1=O	> 52.4
O=C(OCC(=O)c1ccc[nH]1)C1=COCCO1	> 35.6
CC1CC(C)CN(C(=O)Cn2cc(C=O)c3ccccc32)C1 (stereo unspecified)	> 44.8
O=c1c2oc3nc4c(cc3c2ncn1CCCc1ccccc1)CCCC4	1.3 (≈ 3.62 µM)
